# Experimental data taken from US11214803B2, “Modulators of YAP1 expression” (Ionis Pharmaceuticals, Inc., priority 2019, dated 2022).
# Strand notation (5' to 3'): a small letter for the sugar, then the base; units joined by * are phosphorothioate-linked, units joined directly phosphodiester-linked; [ ] holds rarer units or linkages, { } end groups; capitals alone tell only the bases. k = constrained ethyl (cEt); [5mC] = 5-methylcytosine; d = 2'-deoxy (DNA)
# What was measured:
# Yap1 mRNA [1] = assay: Antisense inhibition of human Yap1 in A-431 cells by cEt gapmers, single dose (Example 2, RTS4814); type: cell-based
# Method: Modified oligonucleotides were designed to target a Yap1 nucleic acid and were tested for their effect on Yap1 mRNA level in vitro. The modified oligonucleotides were tested in a series of experiments that had similar culture conditions. Cultured A-431 cells at a density of 5,000 cells per well were treated using free uptake with 2,000 nM of modified oligonucleotide. After a treatment period of approximately 48 hours, RNA was isolated from the cells and Yap1 mRNA levels were measured by quantitative real-time RTPCR. Human primer probe set RTS4814 was used to measure mRNA levels. Yap1 mRNA levels were normalized to total RNA content, as measured by RIBOGREEN®. Results are presented in the tables below as percent control of the amount of Yap1 mRNA relative to untreated control cells (% UTC). The modified oligonucleotides with percent control values marked with an asterisk (*) target the amplicon region of the primer probe set. Additional assays may be used to measure the potency and efficacy of the modified oligonucleotides targeting the amplicon region.
# The newly designed modified oligonucleotides in the Tables below were designed as 3-10-3 cEt gapmers. The gapmers are 16 nucleosides in length, wherein the central gap segment comprises of ten 2′-deoxynucleosides and is flanked by wing segments on the 5′ direction and the 3′ direction comprising three nucleosides each. Each nucleoside in the 5′ wing segment and each nucleoside in the 3′ wing segment has a cEt sugar modification. The internucleoside linkages throughout each gapmer are phosphorothioate (P═S) linkages. All cytosine residues throughout each gapmer are 5-methylcytosines.
# “Start site” indicates the 5′-most nucleoside to which the gapmer is targeted in the human gene sequence. “Stop site” indicates the 3′-most nucleoside to which the gapmer is targeted human gene sequence. […] Activity ofthe modified oligonucleotide may be defined in a different experiment.
# Yap1 mRNA [2] = assay: Dose-dependent inhibition of human Yap1 in A-431 cells (Example 8, 10,000 cells per well, RTS4814); type: cell-based; conditions: free uptake, approximately 48 hours, RTS4814; for Yap1 mRNA, % UTC: A-431 cells, 10,000 cells per well; for IC50: A-431 cells, linear regression on log/linear plot
# Summary of the method: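 Yap1 mRNA, normalized to RIBOGREEN total RNA and expressed as % untreated control, was read with RTS4814 about 48 h after free-uptake oligonucleotide treatment of A-431 cells at 10,000 cells/well. IC50 derived by linear regression of log/linear data.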
# [3] = Table 6, A-431 cells, 5,000 cells per well, free uptake, 2,000 nM modified oligonucleotide, approx. 48 hours, RTS4814, normalized to RIBOGREEN, Yap1 mRNA relative to untreated control cells
Substance,"Yap1 mRNA, % UTC (Yap1 mRNA [2]; 31.3 nM) [% UTC]","Yap1 mRNA, % UTC (Yap1 mRNA [2]; 125.0 nM) [% UTC]","Yap1 mRNA, % UTC (Yap1 mRNA [2]; 500.0 nM) [% UTC]","Yap1 mRNA, % UTC (Yap1 mRNA [2]; 2000.00 nM) [% UTC]",IC50 (Yap1 mRNA [2]) [nM],also measured
1074192 (antisense kG*kA*k[5mC]*dG*dG*d[5mC]*dG*dG*dG*d[5mC]*d[5mC]*d[5mC]*dT*kG*k[5mC]*k[5mC]) [compound 1074192],,,,,,"YAP1 (% UTC) (Yap1 mRNA [1]; Yap1 mRNA as percent of untreated control, A-431 cells, 3-10-3 cEt gapmers targeting SEQ ID NO.: 1, and 2, Table 30): 108 % UTC"
1075621 (kG*kA*kT*dT*dA*dA*d[5mC]*dA*dT*dT*dG*dA*dT*kA*k[5mC]*kT; antisense) [Compound 1075621],,,,,,"YAP1 (% UTC) (Yap1 mRNA [1]; Table 19, A-431 cells, 5,000 cells per well, free uptake, 2,000 nM modified oligonucleotide, approx. 48 hours, RTS4814, normalized to RIBOGREEN, Yap1 mRNA as percent of untreated control): 61 % UTC"
716431 (kA*kA*kT*dG*dA*dT*dT*dG*dG*dT*dG*dA*dA*k[5mC]*kA*kT; antisense) [Compound 716431],,,,,,"YAP1 (% UTC) (Yap1 mRNA [1]; Table 5, A-431 cells, 5,000 cells per well, free uptake, 2,000 nM modified oligonucleotide, approx. 48 hours, RTS4814, normalized to RIBOGREEN, Yap1 mRNA relative to untreated control cells): 55 % UTC"
716576 (kT*kG*kT*d[5mC]*dA*dG*dT*dT*dA*dT*d[5mC]*d[5mC]*dT*kA*kT*k[5mC]; antisense) [Compound 716576],,,,,,YAP1 (% UTC) (Yap1 mRNA [1]; [3]): 52 % UTC
1075688 (kG*kA*k[5mC]*dA*dA*dT*dA*dA*dA*d[5mC]*dA*dT*d[5mC]*kA*k[5mC]*k[5mC]; antisense) [Compound 1075688],,,,,,"YAP1 (% UTC) (Yap1 mRNA [1]; Table 22, Yap1 mRNA as percent of untreated control, 3-10-3 cEt gapmers, single dose): 12 % UTC"
716438 (kA*kT*kT*dT*dT*dT*dG*dG*d[5mC]*dT*dT*dG*dT*k[5mC]*kA*kG; antisense) [Compound 716438],,,,,,YAP1 (% UTC) (Yap1 mRNA [1]; [3]): 32 % UTC
1075271 (antisense kG*kA*kT*dG*dT*dG*dA*dT*d[5mC]*dT*dG*dT*dG*kA*kG*kA) [Compound 1075271],,,,,,"YAP1 (% UTC) (Yap1 mRNA [1]; Table 21, Yap1 mRNA, percent of untreated control, 3-10-3 cEt gapmers targeting SEQ ID NO.: 1 and 2): 11 % UTC"
716400 (kT*kA*kA*d[5mC]*dT*d[5mC]*d[5mC]*dT*dG*dA*d[5mC]*dA*dT*kT*kT*kT; antisense) [Compound 716400],,,,,,"YAP1 (% UTC) (Yap1 mRNA [1]; A-431 cells, 5,000 cells per well, free uptake, 2,000 nM modified oligonucleotide, approx. 48 hours, RTS4814, normalized to RIBOGREEN, Table 4, asterisk (*) = targets amplicon region of primer probe set): 106 % UTC"
1075217 (kT*kT*kA*dT*dT*dT*dT*dA*d[5mC]*dA*d[5mC]*dG*dA*kA*k[5mC]*kT; antisense) [compound 1075217],,,,,,"YAP1 (% UTC) (Yap1 mRNA [1]; Yap1 mRNA as percent of untreated control, A-431 cells, 3-10-3 cEt gapmers targeting SEQ ID NO.: 1, and 2, Table 31): 71 % UTC"
1075940 (kA*k[5mC]*kT*d[5mC]*dA*dA*d[5mC]*dA*dA*d[5mC]*d[5mC]*d[5mC]*d[5mC]*kA*kA*kG; antisense) [Compound 1075940],,,,,,"YAP1 (% UTC) (Yap1 mRNA [1]; Table 18, A-431 cells, 5,000 cells per well, free uptake, 2,000 nM modified oligonucleotide, approx. 48 hours, RTS4814, normalized to RIBOGREEN, Yap1 mRNA as percent of untreated control): 54 % UTC"
1075207 (k[5mC]*kT*kA*dT*dT*dA*dA*dA*dT*dG*dA*dG*d[5mC]*kA*k[5mC]*k[5mC]; antisense) [compound 1075207],82,51,17,7,100,
1074407 (kT*kA*kA*dA*dG*dT*dA*dT*d[5mC]*dT*dT*dG*d[5mC]*kT*kG*kG; antisense) [compound 1074407],55,27,13,8,< 20,
1076388 (antisense kG*kA*kA*dA*dT*dA*dT*dT*d[5mC]*dG*dA*dG*dA*kA*kG*kA) [compound 1076388],87,40,13,6,100,
1074250 (antisense k[5mC]*kT*kG*dA*dT*d[5mC]*dG*dA*dT*dG*dT*dG*dA*kT*kT*kT) [compound 1074250],67,35,15,9,100,
1076516 (k[5mC]*kA*kT*dA*dA*dA*d[5mC]*dA*dT*dG*dA*dG*dT*kG*kG*kT; antisense) [compound 1076516],64,39,18,13,100,
1074852 (kA*kA*kT*dT*dG*dT*dT*dA*dT*dG*dA*dT*dA*kG*kG*k[5mC]; antisense) [compound 1074852],36,11,4,4,< 20,
1076288 (k[5mC]*kT*kT*dA*dT*dT*dT*dA*dG*d[5mC]*dA*dT*dA*kG*kT*kG; antisense) [compound 1076288],31,7,3,4,< 20,
